pIC50, pKd: −log10 of the molar value. Blank lines part the entries; values can stand above or below the compound they belong to. Numbered stars: 1 amine (or outer) side, 2 acyl side, 3 side chain; on linkers, the order of the positions; unused ones are H or OH. Bridge positions count the residues as written; N and C are the ends. Square brackets hold non-standard residues; d marks the D form. Peptide text beside a SMILES is read from it. I, II: the chains in the order shown. * marks the point of attachment. X1 = O=C(O)CN1CCN(CC(=O)O)CC(Cc2ccc(NC(=S)*)cc2)N(CC(=O)O)CC1; Pro(trans-4-F) = O=C(O)[C@@H]1C[C@@H](F)CN1; X2 = O=C(CCOCCOCCC(=O)[*:2])[*:1]
Assays:
Human Granzyme B [1] = biological target: T1, Human Granzyme B (Homo sapiens, UniProt P10144); assay: Granzyme B biochemical inhibition assay (fluorescence); settings: 8 nM granzyme B; values below 8 nM reported as <8 nM
T1 sequence (P10144 21-247): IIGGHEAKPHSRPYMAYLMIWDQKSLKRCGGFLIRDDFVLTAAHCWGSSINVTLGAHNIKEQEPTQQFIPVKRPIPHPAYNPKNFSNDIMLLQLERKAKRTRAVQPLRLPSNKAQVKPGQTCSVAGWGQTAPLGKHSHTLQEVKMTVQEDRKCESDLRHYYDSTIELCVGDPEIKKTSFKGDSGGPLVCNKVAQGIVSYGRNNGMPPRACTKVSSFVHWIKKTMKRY
Protocol: Compounds to be tested as inhibitors were manually prepared in a 2-fold serial dilutions in DMSO, spanning 200 uM to 0.39 uM in a Labcyte Echo qualified low dead volume 384-well plate. Then an ECHO acoustic liquid handler was used to dispense 125 nL of each compound from 384-well plate into a PerkinElmer Proxiplate-384 Plus F assay plate. For the positive control of inhibitor, (S)-3-((3S,6S)-3-((2S,3S)-2-acetamido-3-methylpentanamido)-4-oxo-1,2,3,4,6,7-hexahydroazepino[3,2,1-hi]indole-6-carboxamido)-4-oxobutanoic acid (see C. A. Willoughby et al./Bioorg. Med. Chem. Lett. 12 (2002) 2197-2200 2199) was used at 2 uM assay concentration. For no inhibition control, DMSO was used. Each compound was run in duplicate.
Once the compounds were dispensed in the plates, enzyme mix and substrate mix were prepared. Enzyme mix was prepared by preparing a mixture of 300 uL granzyme B (final concentration 8 nM) and 10.8 mL of assay buffer (from Sigma kit). Substrate mix was prepared by combining 500 uL substrate (from Sigma kit) and 3 mL of assay buffer (from Sigma kit). Enzyme mixture was loaded on BioRaptr and 9.25 uL were added to each well of the assay plate containing compounds. The plate was incubated at room temperature under a metal gasket cover for 30 minutes. Subsequently, 3.125 uL of substrate mix were added to each well using the BioRaptr, reaching a final assay volume of 12.5 uL, and the plate was monitored using a Pherastar FS by 1 read per minute for 30 minutes in fluorescence mode, excitation wavelength is 400 nm and emission wavelength is 510 nm.
The data analysis was performed first in excel, where the slopes of the measured fluorescence from each sample were determined using MARS software from BMG LABTECH. These rates were then multiplied by 10,000 for visualization purposes. The rates, multiplied by 10,000, were normalized to 0% and 100% activity based on the average values of the samples with either 2 uM inhibitor (S)-3-((3S,6S)-3-((2S,3S)-2-acetamido-3-methylpentanamido)-4-oxo-1,2,3,4,6,7-hexahydroazepino[3,2,1-hi]indole-6-carboxamido)-4-oxobutanoic acid, or no inhibitor respectively. All samples were then normalized against these values using the formula={100−[(sample−100% inhib)/0% inhib]}*100 to achieve a normalized percent inhibition. Normalized percent inhibition versus concentration inhibitor was then plotted in Graphpad Prism version 9.0.0 and a variable slope (four parameters) fit was calculated for each inhibitor.

[2] = biological target: human Granzyme B (hGranzyme B) (Homo sapiens, UniProt P10144); assay: Surface plasmon resonance (SPR) binding kinetics to hGranzyme B; settings: 25° C., 1:1 binding model, KD=kd/ka; read-out: Granzyme B SPR Kd
How it was run: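 Biotinylated hGranzyme B captured on streptavidin chip (~1100 RU), reference-spot subtracted. Single-cycle kinetics at 25 °C in HBS-EP+ with 2% DMSO: five 3-fold peptide concentrations, 0.01–1 µM, 120 s association, 900 s dissociation. Fit to a 1:1 model for ka and kd, with KD = kd/ka.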

[3] = rhesus monkey, in vivo
Protocol: Healthy non-human primate: A 3 h dynamic PET/CT scan was performed in a healthy male rhesus monkey to determine whole body biodistribution and clearance properties in an additional species. Approximately 6 mCi of ^18F-labeled anti-granzyme-B peptide was intravenously injected in the animal. Attenuation correction was performed using low-dose CT scan. Regions of interests (ROI) were manually drawn over tissues of interest to determine mean standardized uptake value (SUVmean).

Human Granzyme B [4] = biological target: T1, Human Granzyme B; assay type: in vivo; design: Ten million human peripheral blood mononuclear cell (PBMC) were engrafted in immunocompromised NOG (NOD/Shi-scid/IL-2Rγ) mice; endogenous in cells; host or cells: human PBMC (donor-derived) engrafted in NOG mice
Protocol: Diseased model: Graft versus host disease (GvHD) model was selected to evaluate radiolabeled granzyme-B peptides due to presence of human granzyme-B after onset of disease. Ten million human peripheral blood mononuclear cell (PBMC) were engrafted in immunocompromised NOG (NOD/Shi-scid/IL-2Rγ) mice. Body weight was monitored routinely, once the mice started to lose weight (indication of onset of disease), PET/CT scans were performed. To determine target specificity, NOG mice without human PBMC were used as control. […] Mice were intravenously injected with approximately 150 uCi (35 Ci/mmol) of ^18F-labeled peptides and 45-minute whole body static PET/CT scans were performed 1 h after injection. Attenuation correction was performed using low-dose CT scan.

pIC50 (Human Granzyme B [1]): > 8.10
Compound: C[C@@H]1NC(=O)[C@H](CO)NC(=O)[C@H](CCC(N)=O)NC(=O)[C@H](CC(=O)O)NC(=O)[C@H](CCC(=O)O)NC(=O)[C@H](Cc2ccccc2)NC(=O)[C@H](CC(N)=O)NC(=O)[C@H](Cc2ccccc2)NC(=O)CSC[C@@H](C(=O)NCC(N)=O)NC(=O)[C@@H]2CCCN2C(=O)[C@H](CCC(N)=O)NC(=O)[C@H](Cc2c[nH]c3ccccc23)NC(=O)[C@H]([C@@H](C)O)NC(=O)[C@H](CC(=O)O)NC1=O [Compound 1a, *F.N.F.E.D.Q.S.A.D.T.W.Q.P.*C.G.NH2] ({CH2CO}-FNFEDQSADTWQPCG-NH2; thioether N-14)

pIC50 (Human Granzyme B [1]): > 8.10
Compound: C[C@@H](O)[C@@H]1NC(=O)[C@H](CC(=O)O)NC(=O)[C@@H]2CCCN2C(=O)[C@H](CO)NC(=O)[C@H](CCC(N)=O)NC(=O)[C@H](CC(=O)O)NC(=O)[C@H](CCC(=O)O)NC(=O)[C@H](Cc2ccccc2)NC(=O)[C@H](CC(N)=O)NC(=O)[C@H](Cc2ccccc2)NC(=O)CSC[C@@H](C(=O)NCC(N)=O)NC(=O)[C@@H]2CCCN2C(=O)[C@H](CCC(N)=O)NC(=O)[C@H](Cc2c[nH]c3ccccc23)NC1=O [Compound 25a, *F.N.F.E.D.Q.S.P.D.T.W.Q.P.*C.G.NH2] ({CH2CO}-FNFEDQSPDTWQPCG-NH2; thioether N-14)

pIC50 (Human Granzyme B [1]): > 8.10
Compound: C[C@@H](O)[C@@H]1NC(=O)[C@H](CC(=O)O)NC(=O)[C@@H]2C[C@@H](F)CN2C(=O)[C@H](CO)NC(=O)[C@H](CCC(N)=O)NC(=O)[C@H](CC(=O)O)NC(=O)[C@H](CCC(=O)O)NC(=O)[C@H](Cc2ccccc2)NC(=O)[C@H](CC(N)=O)NC(=O)[C@H](Cc2ccccc2)NC(=O)CSC[C@@H](C(=O)NCC(N)=O)NC(=O)[C@@H]2CCCN2C(=O)[C@H](CCC(N)=O)NC(=O)[C@H](Cc2c[nH]c3ccccc23)NC1=O [Compound 38a, *F.N.F.E.D.Q.S.Prot4F.D.T.W.Q.P.*C.G.NH2] ({CH2CO}-FNFEDQS[Pro(trans-4-F)]DTWQPCG-NH2; thioether N-14)

Further lines, the compound ahead of its results:

Compound: C[C@@H](O)[C@@H]1NC(=O)[C@H](CC(=O)O)NC(=O)[C@@H]2C[C@@H](F)CN2C(=O)[C@H](CO)NC(=O)[C@H](CCC(N)=O)NC(=O)[C@H](CC(=O)O)NC(=O)[C@H](CCC(=O)O)NC(=O)[C@H](Cc2ccccc2)NC(=O)[C@H](CC(N)=O)NC(=O)[C@H](Cc2ccccc2)NC(=O)CSC[C@@H](C(=O)NCC(=O)NCC(=O)N[C@@H](CCCCNC(=S)Nc2ccc(CC3CN(CC(=O)O)CCN(CC(=O)O)CCN3CC(=O)O)cc2)C(N)=O)NC(=O)[C@@H]2CCCN2C(=O)[C@H](CCC(N)=O)NC(=O)[C@H](Cc2c[nH]c3ccccc23)NC1=O (single isomer, unassigned) [Compound 12a, *F.N.F.E.D.Q.S.Prot4F.D.T.W.Q.P.*C.G.G.K(NOTA-1).NH2]
pIC50 (Human Granzyme B [1]): > 8.10

Compound: C[C@@H]1NC(=O)[C@H](CO)NC(=O)[C@H](CCC(N)=O)NC(=O)[C@H](CC(=O)O)NC(=O)[C@H](CCC(=O)O)NC(=O)[C@H](Cc2ccccc2)NC(=O)[C@H](CC(N)=O)NC(=O)[C@H](Cc2ccccc2)NC(=O)CSC[C@@H](C(=O)NCC(=O)NCC(=O)N[C@@H](CCCCNC(=S)Nc2ccc(CC3CN(CC(=O)O)CCN(CC(=O)O)CCN3CC(=O)O)cc2)C(N)=O)NC(=O)[C@@H]2CCCN2C(=O)[C@H](CCC(N)=O)NC(=O)[C@H](Cc2c[nH]c3ccccc23)NC(=O)[C@H]([C@@H](C)O)NC(=O)[C@H](CC(=O)O)NC1=O (stereo partly drawn) [Compound 2a, *F.N.F.E.D.Q.S.A.D.T.W.Q.P.*C.G.G.K(NOTA-1).NH2] ({CH2CO}-FNFEDQSADTWQPCGGK(X1)-NH2; thioether N-14)
pIC50 (Human Granzyme B [1]): > 8.10

Compound: C[C@@H]1NC(=O)[C@H](CO)NC(=O)[C@H](CCC(N)=O)NC(=O)[C@H](CC(=O)O)NC(=O)[C@H](CCC(=O)O)NC(=O)[C@H](Cc2ccccc2)NC(=O)[C@H](CC(N)=O)NC(=O)[C@H](Cc2ccccc2)NC(=O)CSC[C@@H](C(=O)NCC(=O)NCC(=O)N[C@@H](CCCCNC(=O)CCOCCOCCC(=O)NCCCC[C@H](NC(=O)CNC(=O)CNC(=O)[C@@H]2CSCC(=O)N[C@@H](Cc3ccccc3)C(=O)N[C@@H](CC(N)=O)C(=O)N[C@@H](Cc3ccccc3)C(=O)N[C@@H](CCC(=O)O)C(=O)N[C@@H](CC(=O)O)C(=O)N[C@@H](CCC(N)=O)C(=O)N[C@@H](CO)C(=O)N[C@@H](C)C(=O)N[C@@H](CC(=O)O)C(=O)N[C@@H]([C@@H](C)O)C(=O)N[C@@H](Cc3c[nH]c4ccccc34)C(=O)N[C@@H](CCC(N)=O)C(=O)N3CCC[C@H]3C(=O)N2)C(N)=O)C(N)=O)NC(=O)[C@@H]2CCCN2C(=O)[C@H](CCC(N)=O)NC(=O)[C@H](Cc2c[nH]c3ccccc23)NC(=O)[C@H]([C@@H](C)O)NC(=O)[C@H](CC(=O)O)NC1=O [Compound 5a, *F.N.F.E.D.Q.S.A.D.T.W.Q.P.*C.G.G.K.NH2)-PEG2-(*F.N.F.E.D.Q.S.A.D.T.W.Q.P.*C.G.G.K.NH2)] (I: {CH2CO}-FNFEDQSADTWQPCGGK-NH2 / II: {CH2CO}-FNFEDQSADTWQPCGGK-NH2; linker I:17-II:17 via X2; thioether I:N-I:14, II:N-II:14)
pKd [2]: > 9.52 | pIC50 (Human Granzyme B [1]): > 8.10

Compound: C[C@@H](O)[C@@H]1NC(=O)[C@H](CC(=O)O)NC(=O)[C@@H]2C[C@@H](F)CN2C(=O)[C@H](CO)NC(=O)[C@H](CCC(N)=O)NC(=O)[C@H](CC(=O)O)NC(=O)[C@H](CCC(=O)O)NC(=O)[C@H](Cc2ccccc2)NC(=O)[C@H](CC(N)=O)NC(=O)[C@H](Cc2ccccc2)NC(=O)CSC[C@@H](C(=O)NCC(=O)NCC(=O)N[C@@H](CCCCNC(=S)Nc2ccc(CC3CN(CC(=O)O)CCN(CC(=O)O)CCN3CC(=O)O)cc2)C(N)=O)NC(=O)[C@@H]2CCCN2C(=O)[C@H](CCC(N)=O)NC(=O)[C@H](Cc2c[nH]c3ccccc23)NC1=O (stereo partly drawn) [Compound 19a, *F.N.F.E.D.Q.S.Prot4F.D.T.W.Q.P.*C.G.G.K(^68Ga-NOTA-1).NH2, metal not drawn]
route of clearance [3]: primarily cleared through renal excretion | tissues of highest uptake [3]: highest uptake observed in urine/urinary bladder and kidney

Compound: *F.N.F.E.D.Q.S.A.D.T.W.Q.P.*C.G.G.K(^18F-AlF-NOTA-1).NH2 [Compound 11a]
uptake (SUVmean) in lung, liver and bone, GvHD model versus NOG control (Human Granzyme B [4]; 18F-labeled peptides, i.v., mice, static PET/CT 1 h after injection): significantly higher uptake in lung, liver, and bone in GvHD model than NOG control | kidney and bladder uptake difference (Human Granzyme B [4]; in vivo): No significant difference was observed between the kidney and bladder | primary tissue of excretion (Human Granzyme B [4]; in vivo): kidney was the primary tissue through which the peptide was excreted | route of excretion [3]: primarily excreted through renal route | blood pool clearance ([3]; iv): rapid blood pool clearance | uptake in kidneys ([3]; iv): high uptake in kidneys within first 20 minutes of injection
